# Experimental data published in US10357516B2 (priority 2008, dated 2019).
# Marks after values point to notes of the source that are not given here.
# Columns and labels:
# Staphylococcus aureus = assay: Pathogen inactivation in RBC units (log reduction); assay type: cell-based
# Serratia marcescens = assay: Pathogen inactivation in RBC units (log reduction); assay type: cell-based
# Yersinia enterocolitica = assay type: cell-based
# Escherichia coli = assay: Pathogen inactivation in RBC units (log reduction); assay type: cell-based
# P. aeruginosa = assay: Pathogen inactivation in RBC units (log reduction), high level input; assay type: cell-based, Pseudomonas aeruginosa
# Procedure: Bacteria: Frozen working stocks of bacteria were inoculated into a 500 mL flask containing a mixture of 50% yeast extract media without added glucose and 50% fetal bovine serum. The flasks were incubated overnight in a shaking waterbath set at 37° C. Gram positive bacteria were spiked into the blood product directly from the overnight culture. The overnight cultures of Gram negative bacteria were further subcultured by a 1:1000 dilution into fresh culture medium and incubated as above until they reach log phase as determined by optical density. This log phase growth was spiked into the blood product for PI experiments.
# The PI process involves inoculation of RBC units with a culture of the organism to be tested. The typical target input titer of organisms in the RBC units was approximately 10^6 cfu or pfu/mL of RBC. In most cases the organism volume (including any culture medium) was approximately 1% of the RBC unit volume and was not typically greater than 10%. To evaluate inactivation of lower, more physiologically relevant, levels of bacteria, inputs from 10 to 10^5 cfu/unit were used.
# The dosing solutions were prepared and added to the units as follows: A 600 mM Glutathione (GSH) solution with 1 equivalent of NaOH was prepared by dissolving 2.8 g of GSH in ˜12 mL of 0.9% saline and 0.9 mL of 10 N NaOH. The appropriate volume of GSH solution was drawn into a 20 mL capacity syringe. The volume used was typically 10 mL of GSH solution per 280 mL of RBC, plus 2 mL line loss to generate 20 mM GSH in the dosed RBC unit. The syringe containing GSH was attached to the mixing container using the filtered lead that shares a Y fitting with the lead connected to the incubation container. The unit was placed on a rocker to facilitate top to bottom mixing during addition of dosing solutions. The GSH was added to the unit while the unit is mixing on the rocker. […]
# Log reduction for each unit was determined by taking the log of the ratio of pre-treatment titer to post-treatment titer, where titers were expressed as 10×cfu or pfu/mL. […]
# [1] = tested on: Vesicular stomatitis virus (VSV); assay type: cell-based
# Pseudomonas aerugenosa = assay: Low level input full unit inactivation in RBC units; assay type: cell-based, Pseudomonas aeruginosa
# [2] = diluted SAG-M RBC units, 20 mM GSH sodium salt, 0.2 mM S-303, 3 hour incubation, n = 4
# [3] = high level input, 130 μM S-303, 13 mM GSH (1 b.e.), diluted with diluent solution, 3 h RT, N = 2
# [4] = high level input, 200 μM S-303, 20 mM GSH (1 b.e.), 3 h RT, N = 2
# [5] = high level input, 200 μM S-303, 20 mM GSH (1 b.e.), without leukofiltration, 3 h RT, N = 2
# [6] = low level input, 200 μM S-303, 20 mM GSH (1 b.e.), RT 20 hours then 37° C. ~20 hours
compound,measurement,setting,value
"O=C(CCNc1c2ccccc2nc2ccccc12)OCCN(CCCl)CCCl [S-303, β-alanine, N-(acridin-9-yl), 2-[bis(2-chloroethyl)amino]ethyl ester]","Log Reduction GSH (20 mM), 1 b.e.",Staphylococcus aureus,6.0 ± 0.3 log
same,"Log Reduction GSH (20 mM), 2 b.e.",Staphylococcus aureus,6.4 log
same,Average Log Kill,Staphylococcus aureus; [2],4.15 log
same,"Mean Log10 Reduction, 40% Hematocrit",Staphylococcus aureus; [3],>7 log10
same,"Mean Log10 Reduction, 60% Hematocrit",Staphylococcus aureus; [4],6.7 log10
same,"Mean Log10 Reduction, 80% Hematocrit",Staphylococcus aureus; [5],≥5.8^b log10
same,"Log Reduction GSH (20 mM), 1 b.e.",Serratia marcescens,3.7 ± 0.4 log
same,"Log Reduction GSH (20 mM), 2 b.e.",Serratia marcescens,4.8 log
same,Average Log Kill,Serratia marcescens; [2],4.20 log
same,"Mean Log10 Reduction, 40% Hematocrit",Serratia marcescens; [3],3.1 log10
same,"Mean Log10 Reduction, 60% Hematocrit",Serratia marcescens; [4],4.5 log10
same,"Mean Log10 Reduction, 80% Hematocrit",Serratia marcescens; [5],4.4^b log10
same,"Log Reduction GSH (20 mM), 1 b.e.","Yersinia enterocolitica; Y. enterocolitica, 0.2 mM S-303, 20 mM GSH with 1 equivalent NaOH, AS-3 RBC ~60% hematocrit, 3 h at 20 to 25° C.",5.0 ± 0.4 log
same,"Log Reduction GSH (20 mM), 2 b.e.","Yersinia enterocolitica; Y. enterocolitica, previous conditions, GSH neutralized with 2 equivalents NaOH",4.6 log
same,Average Log Kill,Yersinia enterocolitica; [2],≥6.57 log
same,"Mean Log10 Reduction, 40% Hematocrit",Yersinia enterocolitica; [3],6.1 log10
same,"Mean Log10 Reduction, 60% Hematocrit",Yersinia enterocolitica; [4],4.9 log10
same,"Mean Log10 Reduction, 80% Hematocrit",Yersinia enterocolitica; [5],3.4^b log10
same,"Log Reduction GSH (20 mM), 1 b.e.",Escherichia coli,5.9 ± 0.8 log
same,"Log Reduction GSH (20 mM), 2 b.e.",Escherichia coli,6.5 log
same,Average Log Kill,Escherichia coli; [2],≥6.69 log
same,"Mean Log10 Reduction, 40% Hematocrit",Escherichia coli; [3],6.6 log10
same,"Mean Log10 Reduction, 60% Hematocrit","Escherichia coli; high level input, 200 μM S-303, 20 mM GSH (1 b.e.), 3 h RT, n = 3",6.1^c log10
same,"Mean Log10 Reduction, 80% Hematocrit",Escherichia coli; [5],3.8^b log10
same,"Log Reduction GSH (20 mM), 1 b.e.","P. aeruginosa; P. aeruginosa, 0.2 mM S-303, 20 mM GSH with 1 equivalent NaOH, AS-3 RBC ~60% hematocrit, 3 h at 20 to 25° C.",1.2 ± 0.4 log
same,"Log Reduction GSH (20 mM), 2 b.e.","P. aeruginosa; P. aeruginosa, previous conditions, GSH neutralized with 2 equivalents NaOH",1.8 log
same,Average Log Kill,P. aeruginosa; [2],3.35 log
same,"Log Reduction GSH (20 mM), 1 b.e.",[1],>5.9 log
same,"Log Reduction GSH (20 mM), 2 b.e.",[1],4.2 log
same,"Mean Log10 Reduction, 40% Hematocrit",[1]; N = 2,5.9 log10
same,"Mean Log10 Reduction, 60% Hematocrit",[1]; N = 2,>5.9 log10
same,"Mean Log10 Reduction, 80% Hematocrit",[1]; N = 2,>6.2^b log10
same,Pathogen inactivation of Pseudomonas aeruginosa,Pseudomonas aerugenosa,complete inactivation
same,"Full Unit Inactivation, 40% Hematocrit","Pseudomonas aerugenosa; low level input, 130 μM S-303, 13 mM GSH (1 b.e.), RT 20 hours then 37° C. ~20 hours",≥2.5 log10
same,"Full Unit Inactivation, 60% Hematocrit",Pseudomonas aerugenosa; [6],≥2.5 log10
same,"Full Unit Inactivation, 80% Hematocrit",Pseudomonas aerugenosa; [6],≥2.7 log10
